Source: patent US20110294876A1, “CYCLOHEXYL CARBAMATE COMPOUNDS AS ANTI-AGEING ACTIVES” (SYMRISE AG, priority 2010, published 2011)

How the values were obtained:
fish = conditions: cited from earlier work
yeast = conditions: cited from earlier work
isolated 20S proteasome = isolated 20S proteasome (Homo sapiens, UniProt P28074); test: Proteasome activity using isolated proteasome (chymotrypsin-like activity, MCA liberation); assay type: biochemical; set-up: unit of the concentration uncertain; conditions: relative to DMSO control (0 (unit uncertain) = 100%), mean of 3 independent tests
Excerpt: The method used herein to investigate the proteasome stimulating activity of a substance is based on the measurement of the 20S proteasome core activity. To detect this activity, the isolated 20S proteasome reacts with an oligopeptide, which is bound to a fluorochrome. With its chymotrypsin-like proteolytic activity, the proteasome degrades the oligopeptide and liberates the fluorochrome. For this assay 4-methyl-coumaryl-amide (MCA) was used as fluorochrome. Liberation of MCA correlates linearly with the proteasome activity. MCA was detected using an excitation of 360 nm and an emission of 460 nm.
For interpretation, the measured proteasome activities/intensities of fluorescence were compared with pure MCA standards at distinct concentrations.
Two different controls were used for each assay. One “ordinary” control (C) which consisted of isolated proteasome alone, and a DMSO-control (DC). DC was necessary because all substances were diluted in DMSO. Proteasome activity was calculated relative to DMSO control (0 mM).

[1] = system: proteasome in HaCaT cell lysate; test: Proteasome activity using cell lysates of HaCaT cells (MCA liberation); assay type: biochemical, human; set-up: unit of the concentration uncertain; conditions: HaCaT cellular extracts, relative to DMSO control (0 (unit uncertain) = 100%), mean of 3 independent tests
Protocol: To determine proteasome activity in cell lysate, human keratinocyte cell lines (HaCaT cells) were seeded out in Petri-dishes (area: 22.1 cm^2) and harvested when they reached confluence. Isolation of the pure cell lysate included cell washing, incubation and homogenization in lysis buffer (250 mM sucrose, 25 mM HEPES (4-(2-hydroxyethyl)-1-piperazineethanesulfonic acid), 10 mM MgCl2*6H2O, 1.3 mM EDTA) and final cell lysis with liquid nitrogen. Determination of proteasome activity is based on the liberation of MCA and the corresponding fluorescence like described above in example 3.1. Proteasome activity was calculated relative to DMSO control (0 mM).

Structure (SMILES) | Extension of lifespan (fish) [%] | Extension of lifespan (yeast) [%] | Relative proteasome activity (isolated 20S proteasome; 5 (unit uncertain)) [%] | Relative proteasome activity (isolated 20S proteasome; 10 (unit uncertain)) [%] | Relative proteasome activity (isolated 20S proteasome; 20 (unit uncertain)) [%] | Relative proteasome activity ([1]; 5 (unit uncertain)) [%] | Relative proteasome activity ([1]; 10 (unit uncertain)) [%] | Relative proteasome activity ([1]; 20 (unit uncertain)) [%]
Oc1ccc(C=Cc2cc(O)cc(O)c2)cc1 [Resveratrol] | 60 | 70 |  |  |  |  |  | 
CC(C)NC(=O)O[C@@H]1C[C@H](C)CC[C@H]1C(C)C [BIO1272, Isopropyl-carbamic acid (1R,2S,5R)-2-isopropyl-5-methylcyclohexyl ester] |  |  | 125 | 210 | 250 | 105 | 120 | 140
